According to the supplement of paper PMC10307832:

Experiments:
Test in all cases: relative viability (nuclei count vs DMSO), 5 days (fraction); higher = more cells survive
Sulindac + Dasatinib = compound: CC1=C(CC(=O)O)c2cc(F)ccc2/C1=C\c1ccc([S+](C)[O-])cc1 [Sulindac] + Cc1nc(Nc2ncc(C(=O)Nc3c(C)cccc3Cl)s2)cc(N2CCN(CCO)CC2)n1 [Dasatinib] (partner 0.075 µM)
Summary of the method: (§1)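 Nuclei were stained with Hoechst during a one-step fixation (final 0.05% Triton X-100, 1% formaldehyde, 1 ug/ml Hoechst) carried out 5 days after dosing, then counted on 4× images. The cells, lung cancer lines in 1536-well plates, had been dosed by pin tool the day after seeding with one drug alone or a fixed anchor-drug dose plus five library-drug doses (not always all listed) in √10 steps. Relative viability is the nuclei count in treated wells divided by that in vehicle wells, and each value is the median of duplicate plates.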

[1] = compound: CN[C@@H]1C[C@H]2O[C@@](C)([C@@H]1OC)n1c3ccccc3c3c4c(c5c6ccccc6n2c5c31)C(=O)NC4 [Staurosporine] + N=C(N)NC(=N)NCCc1ccccc1 [Phenformin] (partner 250 µM)
Summary of the method: as §1

Sulindac + OSI-027 = compound: CC1=C(CC(=O)O)c2cc(F)ccc2/C1=C\c1ccc([S+](C)[O-])cc1 [Sulindac] + COc1cccc2cc(-c3nc([C@H]4CC[C@H](C(=O)O)CC4)n4ncnc(N)c34)[nH]c12 [OSI-027] (partner 0.5 µM)
Summary of the method: as §1

[2] = compound: CN[C@@H]1C[C@H]2O[C@@](C)([C@@H]1OC)n1c3ccccc3c3c4c(c5c6ccccc6n2c5c31)C(=O)NC4 [Staurosporine] + CC(=O)Nc1cccc(-n2c(=O)n(C3CC3)c(=O)c3c(Nc4ccc(I)cc4F)n(C)c(=O)c(C)c32)c1 [Trametinib] (partner 0.02 µM)
Summary of the method: as §1

| Cell Line | relative viability (Sulindac + Dasatinib; first compound 0.08 µM) | relative viability (Sulindac + Dasatinib; first compound 0.253 µM) | relative viability (Sulindac + Dasatinib; first compound 0.8 µM) | relative viability (Sulindac + Dasatinib; first compound 2.53 µM) | relative viability (Sulindac + Dasatinib; first compound 8 µM) | relative viability ([1]; first compound 0.01581 µM) | relative viability ([1]; first compound 0.05 µM) | relative viability ([1]; first compound 0.1581 µM) | relative viability ([1]; first compound 0.5 µM) | relative viability (Sulindac + OSI-027; first compound 0.08 µM) | relative viability (Sulindac + OSI-027; first compound 0.253 µM) | relative viability (Sulindac + OSI-027; first compound 0.8 µM) | relative viability (Sulindac + OSI-027; first compound 2.53 µM) | relative viability (Sulindac + OSI-027; first compound 8 µM) | relative viability ([2]; first compound 0.005 µM) | relative viability ([2]; first compound 0.01581 µM) | relative viability ([2]; first compound 0.05 µM) | relative viability ([2]; first compound 0.1581 µM) | relative viability ([2]; first compound 0.5 µM) | relative viability ([1]; first compound 0.005 µM) |
| --- | --- | --- | --- | --- | --- | --- | --- | --- | --- | --- | --- | --- | --- | --- | --- | --- | --- | --- | --- | --- |
| PC-3 [JPC-3] | 0.878 | 1.05 | 0.772 | 1.02 | 1.04 | 0.394 | 0.352 | 0.247 | 0.181 | 0.715 | 0.797 | 0.614 | 0.752 | 0.728 | 0.704 | 0.543 | 0.453 | 0.391 | 0.332 | – |
| NCI-H1944 | 0.207 | 0.202 | 0.18 | 0.2 | 0.269 | 0.11 | 0.141 | 0.102 | 0.0775 | 0.424 | 0.43 | 0.353 | 0.421 | 0.412 | 0.373 | 0.331 | 0.356 | 0.252 | 0.195 | 0.19 |
| NCI-H2085 | 0.209 | 0.219 | 0.27 | 0.238 | 0.213 | 0.197 | 0.312 | 0.151 | 0.174 | 0.8 | 0.822 | 0.674 | 0.831 | 0.755 | 0.313 | 0.208 | 0.293 | 0.215 | 0.197 | – |
| NCI-H1792 | 0.881 | 0.867 | – | 0.812 | 0.914 | 0.0732 | 0.0598 | 0.0859 | 0.0427 | 0.848 | 0.884 | – | 0.815 | 0.899 | 0.374 | 0.263 | 0.164 | 0.0813 | 0.0466 | 0.255 |
| NCI-H2347 | 0.282 | 0.25 | – | 0.303 | 0.275 | 0.253 | 0.201 | 0.216 | 0.165 | 0.398 | 0.363 | – | 0.301 | 0.511 | 0.259 | 0.248 | 0.174 | 0.221 | 0.186 | 0.269 |
| 201T | 0.662 | 0.585 | 0.526 | 0.559 | 0.587 | – | 0.343 | 0.266 | 0.198 | 0.746 | 0.802 | 0.744 | 0.727 | 0.879 | 0.769 | – | 0.703 | 0.58 | 0.485 | 0.422 |
| NCI-H1755 | 0.52 | 0.478 | 0.36 | 0.442 | 0.495 | 0.24 | 0.196 | 0.195 | 0.161 | 0.776 | 0.64 | 0.661 | 0.733 | 0.763 | 0.663 | 0.479 | 0.263 | 0.212 | 0.193 | 0.384 |
